In ChEMBL document CHEMBL3507680, “University of Dundee, Gates Library screen for HepG2 cell viability” one finds cytotoxicity data, which are given here for 104 compounds.

Molecules are shown by their SMILES.

The nature of the series: Human HepG2 cell viability assay in 384 well format. The class given is toxicity, cell-based. More on the design: dose 125 nL, time 70.5 hour; cytotoxicity at 70.5 h: concentration not given beside the values. As to conditions: HepG2 cells, read-out: Inhibition.
On to `O=C(CCc1ccc2c(c1)OCO2)Nc1cccnc1-n1cncn1`, for which the cytotoxicity at 70.5 h is -2.15%.
For the compound `Cn1ccc(C(=O)N2CCOC(c3ccccc3)C2)cc1=O` (centres undefined), the cytotoxicity at 70.5 h is -7.42%.
Turning to `N#Cc1cccnc1N1CCCN(C(=O)CCc2cccs2)CC1`, the cytotoxicity at 70.5 h is -4.16%.
In the case of `COc1cc(C2(C(=O)NC3CCN(C4CC4)CC3)CC2)ccc1C`, the cytotoxicity at 70.5 h is -4.2%.
Next, `Cn1ccc2c(C(=O)NCCCS(C)(=O)=O)cccc21`: 5.4%; `O=C(Nc1ccc(Cl)cn1)C1CCN(CCc2ccccn2)CC1`: -1.68%.
Consider `CC(C)(C)NC(=O)Cn1nc(C2CC2)cc(C(F)(F)F)c1=O`, for which the cytotoxicity at 70.5 h was -1.18%.
For the compound `O=C(Nc1ccc(Cl)cn1)C1CCCN(CCc2ccccn2)C1` (centres undefined), the cytotoxicity at 70.5 h was found to be 14.5%.
The figure for `CN1CCCN(c2nc(C3CC3)ns2)CC1` is -3.92%; for `Cc1nc(C)n(CC2CN(CCc3ccccn3)CCO2)n1` (centres undefined) it is -7.39%; for `Cc1ncncc1C(=O)N1CCCN(Cc2cnn(C(C)C)c2)CC1` it is 8.58%.
On to `COc1c(C2CCCN2C(=O)c2cnn(C)c2C2CC2)c(C)nn1C` (centres undefined), for which the cytotoxicity at 70.5 h was -2.81%.
The figure for `COc1c(C2CCCN2C(=O)c2sccc2C#N)c(C)nn1C` (centres undefined) is -5.44%.
Next, `O=C(NCCCOCC1CCCO1)c1cccnc1N1CCOCC1` (centres undefined): 36.7%; `CC(C)CCC(=O)N1CCCC1c1nnc2n1CCCCC2` (centres undefined): -6.64%.
For `CCN(CC)C(CNS(=O)(=O)c1ccc(C(C)=O)cc1)c1ccco1` (centres undefined), the cytotoxicity at 70.5 h was -3.55%.
Turning to `CCN(CC)C(CNC(=O)c1ccc(S(=O)(=O)NC)cc1)c1ccco1` (centres undefined), the cytotoxicity at 70.5 h turned out to be 0.103%.
In the case of `NC(=O)c1ccc(CN2CCC(N3CCCCC3)CC2)cc1`, the cytotoxicity at 70.5 h was -1.57%.
For `Cc1cc(C)n(CC2CN(Cc3ccc(C(N)=O)cc3)CCO2)n1` (centres undefined), the cytotoxicity at 70.5 h is -4.76%.
In the case of `CCCC1CCCN(C(=O)Nc2ccc(F)c(C(N)=O)c2)CC1` (centres undefined), the cytotoxicity at 70.5 h was -1.9%.
Next, `c1nc(N2CCOC(Cn3cncn3)C2)c2sccc2n1` (centres undefined): 29%; `CN1CCC(NC(=O)CC2CN(Cc3ccccc3)CCO2)CC1` (centres undefined): -5.42%.
As for `Cc1cnn(CC2CCCCN2C(=O)Cn2nc(C)c(Cl)c2C)c1` (centres undefined), the cytotoxicity at 70.5 h is -4.01%.
Turning to `CNc1cc(N2CCCC2CNCc2cccc(C(N)=O)c2)ncn1` (centres undefined), the cytotoxicity at 70.5 h was -2.53%.
With `Cc1noc(Cl)c1CC(=O)N1CCCC1Cn1cccn1` (centres undefined), the cytotoxicity at 70.5 h is 2.85%.
`Cc1cc(C)n(C2CCCN(C(=O)c3cccc(F)c3F)C2)n1` (centres undefined): the cytotoxicity at 70.5 h was determined as 38.7%.
`CNc1cc(N2CCCC2CNCc2cccnc2)ncn1` (centres undefined): the cytotoxicity at 70.5 h is 4.98%.
Consider `Cc1cc(C)n(C2CCCN(C(=O)c3ccc(N(C)C)nn3)C2)n1` (centres undefined), for which the cytotoxicity at 70.5 h was -4.23%.
Regarding `CNc1cc(N2CCCC2CNCc2cccs2)ncn1` (centres undefined), the cytotoxicity at 70.5 h is -1.51%.
In the case of `CS(=O)(=O)CCn1ccc(NC(=O)Cc2cccc(Cl)c2)n1`, the cytotoxicity at 70.5 h is -0.645%.
`O=C(CC1CN(Cc2ccccc2)CCO1)NC1CCSCC1` (centres undefined): the cytotoxicity at 70.5 h stood at 3.03%.
`Cc1nc(C)n(C2CCCN(C(=O)Cc3ccc4c(c3)CCC4)C2)n1` (centres undefined): the cytotoxicity at 70.5 h is -3.72%.
Next, `CC(C)OCCCNC(=O)c1cccnc1N1CCOCC1`: 39.8%; `CNc1cc(N2CCCC2CNCc2ccco2)ncn1` (centres undefined): -1.02%; `Cc1cc(C)n(CC2CN(Cc3cccnc3)CCO2)n1` (centres undefined): 3.35%.
On to `CCn1ccnc1CN1CCN(CCc2ccccn2)CC1C` (centres undefined), for which the cytotoxicity at 70.5 h was -3.46%.
For the compound `Cc1nn(C)c(C)c1CC(=O)N1CCCC1Cn1cccn1` (centres undefined), the cytotoxicity at 70.5 h was -5%.
For the compound `Cc1nc(C)n(C2CCCN(C(=O)CCc3cn(C)nc3C)C2)n1` (centres undefined), the cytotoxicity at 70.5 h was -0.365%.
Regarding `Cc1cc(C)n(C2CCCN(C(=O)c3ccc(F)c(F)c3)C2)n1` (centres undefined), the cytotoxicity at 70.5 h is 9.19%.
Next, `CSCCC(=O)N1CCCC1c1nnc2n1CCCCC2` (centres undefined): -3.4%; `O=C(CN1CCCC(CO)C1)NCCOc1cccc(Cl)c1` (centres undefined): 27.5%.
As for `O=C(NCCSCc1ccc(Br)s1)C1CCCN(C(=O)c2cccs2)C1` (centres undefined), the cytotoxicity at 70.5 h is -8.75%.
On to `CCCc1nc(C)c(C(=O)NCC2CCN(C3CC3)C2)s1` (centres undefined), for which the cytotoxicity at 70.5 h turned out to be 23.6%.
For the compound `Cc1sc2nc(C(F)(F)F)nc(N3CCC(NS(C)(=O)=O)CC3)c2c1C`, the cytotoxicity at 70.5 h was -5.38%.
Consider `CC(=O)N1CCN(c2nc(C(F)(F)F)nc3sc(C)c(C)c23)CC1`, for which the cytotoxicity at 70.5 h is -9.75%.
The figure for `O=C(c1c[nH]c(=O)[nH]1)N1CCc2ccccc21` is -4.03%; for `CC(NCc1cccnc1)c1cc2c(cc1Br)OCCO2` (centres undefined) it is -6.12%; for `Cc1ccc(CN2CCOCC2)cc1NC(=O)c1ccsc1` it is -9.12%.
As to `N#Cc1cccc(C(=O)NS(=O)(=O)c2ccc(C#N)c(Cl)c2)c1`, the cytotoxicity at 70.5 h came out at 27.3%.
Consider `COc1ccsc1C(=O)Nc1cc(CN2CCOCC2)ccc1C`, for which the cytotoxicity at 70.5 h is 0.784%.
As for `Clc1ccc(NCc2nnc(C3CC3)o2)cc1Cl`, the cytotoxicity at 70.5 h was determined as 24.8%.
Next, `CC(C)(C)c1noc(CNc2ccccc2N2CCC(O)CC2)n1`: -8.28%.
As for `O=C(NS(=O)(=O)c1ccc(F)cc1)C1CCOc2ccccc21` (centres undefined), the cytotoxicity at 70.5 h is -3.97%.
For `FC(F)(F)Sc1ccc(NCc2nnc(C3CC3)o2)cc1`, the cytotoxicity at 70.5 h is 1.88%.
For `COc1ccnc(NC(=O)c2ccsc2)c1`, the cytotoxicity at 70.5 h was -10.1%.
The figure for `COCCCN(Cc1ccncc1)C(=O)CSc1ccc(F)cc1` is -5.19%; for `CCOC(C)c1noc(CN2CCN(CC3CCCC3)CC2)n1` (centres undefined) it is -6.48%.
Turning to `CCOC(C)c1noc(CN2CCN(c3nnc(C)s3)CC2)n1` (centres undefined), the cytotoxicity at 70.5 h is -4.45%.
For the compound `O=C(O)[C@H]1CCCN1CCOc1cccc(Cl)c1`, the cytotoxicity at 70.5 h is -5.33%.
Next, `CCOC(C)c1noc(CN2CCNCC2)n1` (centres undefined): 13.6%; `COC(C)c1noc(CN2CCCNCC2)n1` (centres undefined): -10%.
In the case of `O=C(Cc1cccc(Cl)c1)Nc1cnccc1SCCCO`, the cytotoxicity at 70.5 h was -6.16%.
Turning to `CC(NCCN1CCN(C(=O)C2CCCC2)CC1)c1cnn(C)c1` (centres undefined), the cytotoxicity at 70.5 h turned out to be 5.6%.
As for `Cc1ccc(C)c(CC(=O)Nc2cnccc2SCCCO)c1`, the cytotoxicity at 70.5 h is 23.5%.
Turning to `C=C(C)CN(CC)S(=O)(=O)c1ccccc1C#N`, the cytotoxicity at 70.5 h was -7.47%.
As for `CCN(CC(=O)NC)C(=O)c1cc(-c2cccc(Cl)c2)no1`, the cytotoxicity at 70.5 h was -2.85%.
The figure for `Cc1cccc(N(C)Cc2nc3c(cnn3C)c(=O)[nH]2)c1C` is -10%; for `CCN(Cc1nc2c(cnn2C)c(=O)[nH]1)c1ccccc1C` it is -11.2%.
Next, `O=C(c1ccc(=O)[nH]n1)N1CCCC1CCc1ccccc1` (centres undefined): -11.9%; `CCOC(=O)c1ccc(Nc2ccc(OC)c(N3CCCC3=O)c2)nc1`: -14.4%; `CCN(Cc1nc2c(cnn2C)c(=O)[nH]1)c1cc(C)ccc1C`: -15.9%.
As for `O=C(C1CCCN1c1ncnc2ccsc12)N1CCSCC1` (centres undefined), the cytotoxicity at 70.5 h is -9.24%.
On to `Cn1cnc2c1CCN(Cc1nc(-c3ccco3)no1)C2`, for which the cytotoxicity at 70.5 h turned out to be 8.47%.
With `O=C(c1ccc(-n2ccnc2)nn1)N1CCCCC1Cn1cccn1` (centres undefined), the cytotoxicity at 70.5 h is -5.22%.
Take `CC(CO)N1CCN(C(=O)OC(C)(C)C)CC1` (centres undefined): the cytotoxicity at 70.5 h is -6.8%.
Consider `Cc1cccc(-c2nc(CN3CCn4c(nnc4C4CC4)C3)no2)c1`, for which the cytotoxicity at 70.5 h was -12.1%.
Next, `COc1ccc(Nc2ncccc2C#N)cc1N1CCCC1=O`: 5.71%.
Consider `Cc1nc(CN2CCCN(Cc3nc4c(F)cccc4[nH]3)CC2)no1`, for which the cytotoxicity at 70.5 h is -10.4%.
On to `Cc1nc(C2CCCN2CCCn2c(=O)oc3ccccc32)no1` (centres undefined), for which the cytotoxicity at 70.5 h was 19.1%.
Regarding `CC(C)=CCN1CCN(C(=O)C2CC2)CC1`, the cytotoxicity at 70.5 h was found to be 2.37%.
Consider `O=C(Nc1cccnc1-n1cccn1)N1CCCC(N2CCCC2)C1` (centres undefined), for which the cytotoxicity at 70.5 h is -4.62%.
Take `CN(C)c1ccc(CNCc2ccc(N3CCOCC3)cc2)cn1`: the cytotoxicity at 70.5 h is -9.01%.
In the case of `Cc1cc(N(C)CCOc2ccccc2F)nc(N)n1`, the cytotoxicity at 70.5 h is -2.43%.
On to `COc1ccccc1OCCN(C)c1cc(C)nc(N)n1`, for which the cytotoxicity at 70.5 h turned out to be 18.7%.
`CN(C)c1cc(CNCc2ccc(N3CCOCC3)cc2)ccn1`: the cytotoxicity at 70.5 h was -6.16%.
Consider `CN(C)c1ncccc1CNCc1ccc(N2CCOCC2)cc1`, for which the cytotoxicity at 70.5 h was 18.9%.
Consider `c1cnn(C2CN(c3ncnc4[nH]ccc34)C2)c1`, for which the cytotoxicity at 70.5 h is -0.76%.
With `Cc1cc(C)n(C2CN(c3ncnc4[nH]ccc34)C2)n1`, the cytotoxicity at 70.5 h was -3.24%.
Next, `Cc1cnn(C2CN(c3ncnc4[nH]ccc34)C2)c1`: -3.84%; `CC(C)CCN(C(=O)CCn1cc(S(N)(=O)=O)cn1)C1CC1`: -1.68%.
As to `Cc1ccccc1N(CC(=O)NCCc1nnc2n1CCC2)S(C)(=O)=O`, the cytotoxicity at 70.5 h is -4.09%.
In the case of `Cn1cnc2c1CCN(Cc1ccc(Cl)c3cccnc13)C2`, the cytotoxicity at 70.5 h was 15.6%.
As for `Cn1nnnc1SC1CCN(c2ccccc2Cl)C1=O` (centres undefined), the cytotoxicity at 70.5 h is -2.66%.
Next, `Cn1cc(C2CCCN2C(=O)Cn2c(=O)oc3ccccc32)cn1` (centres undefined): -4.25%.
Next, `O=C1C(Sc2nnnn2C2CC2)CCN1c1ccccc1F` (centres undefined): -3.39%; `Cn1cnc2c1CCN(Cc1c(Cl)ccc3cccnc13)C2`: 0.125%; `CS(=O)(=O)N(Cc1ccon1)c1cccc(Br)c1`: -1.5%.
Regarding `Cc1ccc(CN(C)c2cc(N3CCCC3CO)ncn2)s1` (centres undefined), the cytotoxicity at 70.5 h is -4.83%.
As for `Cn1nnnc1SC1CCCN(c2ccccc2Cl)C1=O` (centres undefined), the cytotoxicity at 70.5 h was -1.81%.
Regarding `CN(C)c1ccc(C(=O)NCc2ccc(N3CCOCC3)cc2)cn1`, the cytotoxicity at 70.5 h was 14.5%.
In the case of `CCc1nnc(C(C)N2CCc3cncnc3C2)o1` (centres undefined), the cytotoxicity at 70.5 h is -3.77%.
In the case of `Cc1cc(CNC2(c3ccc(Cl)cc3)CC2)no1`, the cytotoxicity at 70.5 h was -2.02%.
As for `CC(=O)N1CCN(CC=C(C)C)CC1`, the cytotoxicity at 70.5 h was -6.01%.
On to `CN(C)c1ccc(CNCc2cnc(N3CCOCC3)nc2)cn1`, for which the cytotoxicity at 70.5 h turned out to be 2.93%.
